Where a name gives a salt, the structure may show the parent alone. Read-outs that look alike come from different tables or passages of the source.
Experiment: Solubility of toremifene citrate in solvent (reference)
Format: physicochemical

solubility (0.1 M HCl, simulated gastric fluid, read-out: Solubility in 0.1 M HCl): ~30 µg/mL | solubility (ethanol, organic solvent or mixture, read-out: Solubility in ethanol): ~3000 µg/mL
SMILES: CN(C)CCOc1ccc(/C(=C(/CCCl)c2ccccc2)c2ccccc2)cc1 [toremifene citrate]

From US6887888B2, “Soluble compositions of triphenylethylene antiestrogens” (Orion Corporation, priority 1998, dated 2005)
